The values below come from patent publication US9045435B2, “Quinazoline compounds as sodium channel blockers” (Purdue Pharma, L.P., priority 2010, dated 2015).

The target of this assay is human Nav1.7 (Homo sapiens, UniProt Q15858). Briefly: FLIPR or FLIPR TETRA sodium dye assay with KCl and test article pre-incubation. Type of assay: cell-based. The conditions noted are these: sodium dye assay with KCl; recombinant Nav1.7/HEK293 cells; read-out: FLIPR Nav1.7 IC50 (μM) ± SEM.
Chain of human Nav1.7 (Q15858 1-1977 isoform Q15858-3): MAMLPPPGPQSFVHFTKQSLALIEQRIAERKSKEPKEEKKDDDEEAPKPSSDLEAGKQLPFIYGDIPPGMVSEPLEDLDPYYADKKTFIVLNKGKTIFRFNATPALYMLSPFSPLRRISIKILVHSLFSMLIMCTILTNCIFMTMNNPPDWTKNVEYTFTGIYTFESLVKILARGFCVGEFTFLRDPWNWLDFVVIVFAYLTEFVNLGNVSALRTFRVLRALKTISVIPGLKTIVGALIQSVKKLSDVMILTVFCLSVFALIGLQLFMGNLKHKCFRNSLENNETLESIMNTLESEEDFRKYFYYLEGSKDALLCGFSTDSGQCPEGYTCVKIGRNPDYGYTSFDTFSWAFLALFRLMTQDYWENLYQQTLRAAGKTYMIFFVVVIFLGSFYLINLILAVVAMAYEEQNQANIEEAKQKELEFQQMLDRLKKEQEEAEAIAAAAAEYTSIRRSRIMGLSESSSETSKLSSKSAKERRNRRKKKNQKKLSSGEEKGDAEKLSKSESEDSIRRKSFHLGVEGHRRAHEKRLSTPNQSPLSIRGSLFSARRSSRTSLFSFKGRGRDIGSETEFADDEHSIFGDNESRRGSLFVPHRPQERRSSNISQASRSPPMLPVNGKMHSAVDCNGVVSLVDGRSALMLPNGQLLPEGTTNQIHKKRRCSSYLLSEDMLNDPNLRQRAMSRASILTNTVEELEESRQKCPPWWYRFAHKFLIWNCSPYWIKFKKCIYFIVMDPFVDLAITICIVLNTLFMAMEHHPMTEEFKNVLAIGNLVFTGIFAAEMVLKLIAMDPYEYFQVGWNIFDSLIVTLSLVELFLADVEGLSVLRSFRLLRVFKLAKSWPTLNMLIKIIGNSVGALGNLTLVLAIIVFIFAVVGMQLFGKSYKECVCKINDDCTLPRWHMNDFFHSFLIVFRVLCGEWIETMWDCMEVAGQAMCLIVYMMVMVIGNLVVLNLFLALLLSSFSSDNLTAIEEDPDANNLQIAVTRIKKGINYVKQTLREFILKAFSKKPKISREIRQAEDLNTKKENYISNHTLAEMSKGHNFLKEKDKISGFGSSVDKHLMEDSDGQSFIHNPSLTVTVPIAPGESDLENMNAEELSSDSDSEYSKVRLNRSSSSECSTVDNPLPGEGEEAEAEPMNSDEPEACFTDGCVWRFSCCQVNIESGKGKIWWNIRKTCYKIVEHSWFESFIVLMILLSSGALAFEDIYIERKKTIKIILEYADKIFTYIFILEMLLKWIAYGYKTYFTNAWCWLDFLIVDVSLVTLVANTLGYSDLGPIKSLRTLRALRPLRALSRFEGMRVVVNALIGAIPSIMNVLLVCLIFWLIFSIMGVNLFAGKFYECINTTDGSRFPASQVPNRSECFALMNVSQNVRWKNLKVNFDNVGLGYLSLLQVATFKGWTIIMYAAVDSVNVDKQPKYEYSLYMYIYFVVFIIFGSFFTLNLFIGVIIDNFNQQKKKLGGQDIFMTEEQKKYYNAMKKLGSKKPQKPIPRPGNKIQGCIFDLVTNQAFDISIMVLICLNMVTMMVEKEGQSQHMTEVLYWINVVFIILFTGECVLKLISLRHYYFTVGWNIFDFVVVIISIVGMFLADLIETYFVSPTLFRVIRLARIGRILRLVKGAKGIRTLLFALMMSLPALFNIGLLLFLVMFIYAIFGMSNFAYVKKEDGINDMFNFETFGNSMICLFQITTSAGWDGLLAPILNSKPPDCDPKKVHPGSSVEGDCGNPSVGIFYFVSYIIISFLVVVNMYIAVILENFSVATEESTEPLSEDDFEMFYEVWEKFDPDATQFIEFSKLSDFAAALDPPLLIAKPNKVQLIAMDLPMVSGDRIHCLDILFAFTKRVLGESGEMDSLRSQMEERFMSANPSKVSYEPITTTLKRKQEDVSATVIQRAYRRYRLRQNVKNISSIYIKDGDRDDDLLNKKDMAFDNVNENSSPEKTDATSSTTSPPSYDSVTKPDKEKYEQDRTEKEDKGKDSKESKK

As a reminder, the IC50 is the concentration needed to halve the response being measured. As for `CCOC(=O)c1nc(-c2ccc(Oc3ccccc3)cc2)c2ccccc2n1` [Compound 3, ethyl 4-(4-phenoxyphenyl)quinazoline-2-carboxylate], the IC50 amounted to 1.57 µM.

Consider `O=C(O)c1nc(-c2ccc(Oc3ccccc3)cc2)c2ccccc2n1` [Compound 4, 4-(4-phenoxyphenyl)quinazoline-2-carboxylic acid], for which the IC50 was more than 20 µM.

For the molecule `OC[C@@H](O)c1nc(-c2ccc(Oc3ccc(F)cc3)cc2)c2ccccc2n1` [Compound 10, (S)-1-(4-(4-(4-fluorophenoxy)phenyl)quinazolin-2-yl)ethane-1,2-diol], the IC50 turned out to be 0.849 µM. To `O=C1CN(c2nc(-c3ccc(Oc4ccc(F)cc4)cc3)c3ccccc3n2)CCN1` [Compound 13b, 4-(4-(4-(4-fluorophenoxy)phenyl)quinazolin-2-yl)piperazin-2-one] belongs 0.839 µM.

As for `OCCNc1nc(-c2ccc(Oc3ccc(F)cc3)cc2)c2ccccc2n1` [Compound 13c, 2-((4-(4-(4-fluorophenoxy)phenyl)quinazolin-2-yl)amino)ethanol], the IC50 was determined as 0.369 µM. For the molecule `CN(C)CCNc1nc(-c2ccc(Oc3ccc(F)cc3)cc2)c2ccccc2n1` [Compound 13d, N^1-(4-(4-(4-fluorophenoxy)phenyl)quinazolin-2-yl)-N^2,N^2-dimethylethane-1,2-diamine], the IC50 is 0.317 µM. Under `Nc1nc(-c2ccc(Oc3ccc(F)cc3)cc2)c2ccccc2n1` [Compound 13e, 4-(4-(4-fluorophenoxy)phenyl)quinazolin-2-amine] stands 0.426 µM. To `CN(N)c1nc(-c2ccc(Oc3ccc(F)cc3)cc2)c2ccccc2n1` [Compound 13g, 4-(4-(4-fluorophenoxy)phenyl)-2-(1-methylhydrazinyl)quinazoline] belongs 0.309 µM. `CCN1CCN(c2nc(-c3ccc(Oc4ccc(F)cc4)cc3)c3ccccc3n2)CC1` [Compound 13h, 2-(4-ethylpiperazin-1-yl)-4-(4-(4-fluorophenoxy)phenyl)quinazoline]: the IC50 was 0.236 µM. Consider `OC1CCN(c2nc(-c3ccc(Oc4ccc(F)cc4)cc3)c3ccccc3n2)CC1` [Compound 13i, 1-(4-(4-(4-fluorophenoxy)phenyl)quinazolin-2-yl)piperidin-4-ol], for which the IC50 came out at 0.428 µM.

On to `OCCN1CCN(c2nc(-c3ccc(Oc4ccc(F)cc4)cc3)c3ccccc3n2)CC1` [Compound 13j, 2-(4-(4-(4-(4-fluorophenoxy)phenyl)quinazolin-2-yl)piperazin-1-yl)ethanol], for which the IC50 is 0.104 µM. `COC(=O)[C@@H]1C[C@@H](O)CN1c1nc(-c2ccc(Oc3ccc(F)cc3)cc2)c2ccccc2n1` [Compound 13m, (2S,4R)-methyl 1-(4-(4-(4-fluorophenoxy)phenyl)quinazolin-2-yl)-4-hydroxypyrrolidine-2-carboxylate]: the IC50 amounted to 0.833 µM. To `CNc1nc(-c2ccc(Oc3ccc(F)cc3)cc2)c2ccccc2n1` [Compound 13n, 4-(4-(4-fluorophenoxy)phenyl)-N-methylquinazolin-2-amine] belongs 0.294 µM; to `Fc1ccc(Oc2ccc(-c3nc(NCCCn4ccnc4)nc4ccccc34)cc2)cc1` [Compound 13o, N-(3-(1H-imidazol-1-yl)propyl)-4-(4-(4-fluorophenoxy)phenyl)quinazolin-2-amine], 0.325 µM; to `CN(C)CCCNc1nc(-c2ccc(Oc3ccc(F)cc3)cc2)c2ccccc2n1` [Compound 13p, N^1-(4-(4-(4-fluorophenoxy)phenyl)quinazolin-2-yl)-N^3,N^3-dimethylpropane-1,3-diamine], 0.205 µM.

For the molecule `OC[C@@H](O)CNc1nc(-c2ccc(Oc3ccc(F)cc3)cc2)c2ccccc2n1` [Compound 13r, (S)-3-((4-(4-(4-fluorophenoxy)phenyl)quinazolin-2-yl)amino)propane-1,2-diol], the IC50 amounted to 0.32 µM. For `NC(=O)C[C@H](Nc1nc(-c2ccc(Oc3ccc(F)cc3)cc2)c2ccccc2n1)C(N)=O` [Compound 13s, (S)-2-((4-(4-(4-fluorophenoxy)phenyl)quinazolin-2-yl)amino)succinamide], the IC50 was 0.313 µM.
